The results in this text go back to patent US10351519B2, “Sulfamate derivative compounds, processes for preparing them and their uses” (BIO-PHARM SOLUTIONS CO., LTD., priority 2016, dated 2019).

The term ED50 denotes the midpoint of the dose-response relation.

Common to all, as to type: in vivo
In experiment [1] the test system is Sprague-Dawley rats. Briefly: Lithium-pilocarpine induced epilepsy test, prevention. Particulars: i.p. On the procedure: Male Sprague-Dawley rats (purchased from Orient Bio Inc. Korea) of body weight 175-200 grams were used for these studies and 3 rats per cage were housed for 4-5 days. On the day prior to SE, rats received 127 mg/kg lithium chloride (Sigma, St. Louis, Mo., U.S.A.) intraperitoneally (i.p.). Approximately 18-20 h following this treatment, rats were given an i.p. injection of CD97 dose (30-43 mg/kg) pilocarpine (Sigma). An i.p. injection of 2 mg/kg methyl-scopolamine (Sigma) was administered 30 min prior to pilocarpine to block the effects of the muscarinic agonist on peripheral cholinergic receptors. Test drugs were dissolved in 30% PEG 400 or 20% tween80 (Sigma).
The drugs were administered intraperitoneally (i.p.) in a volume of 2 ul/g body weight. Pharmacological effects of all of the test materials were evaluated to compare test groups (n=6) with a control group (n=6). Control group was administered vehicle only. The efficacy was measured 0.5, 1, 2, or 4 hours after the administration of the test material. The time point that the most animals were protected was defined as peak time and the ED50 was determined at peak time. The animals were then transferred to observation cages and observed continuously for 90 min. Seizure was elicited in approximately 95% of the control group. Protection was defined as complete absence of seizure grade 3-5 (Racine scale; Racine, 1972) over the 90-min observation period. The effective dose of the compound necessary to protect 50% of the animals against seizures compared to controls (i.e. ED50) was determined by a curve fitting program (Excel 2007, Microsoft).

Experiment [2] concerns Sprague-Dawley rats. Description: Antiallodynic activity on Chung model (SNL, spinal nerve ligation). Particulars: orally. The text has this:
Male Sprague-Dawley rats (100-130 g, Orient Bio, Korea) were habituated for 1 week before the experiment and allowed free access to food and water throughout the experimentation. Room temperature and humidity were maintained at 24±2 and 50±10%, respectively. The neuropathic surgery (SNL, Spinal nerve ligation) model was done as described in Kim and Chung (1992). Briefly, an animal was put under gaseous anesthesia with isoflurane. The left lumber spinal nerve L5 and L6 were isolated and tightly ligated with 6-0 silk thread. The wound muscle was closed with Catgut® chrom 3/0 thread and skin was closed with Dafilon 3/0 tread. Sham controls were prepared in the same manner with the spinal nerves exposed, but with no ligated L5 and L6 nerves. Preparation of the vehicle controls were identical to the group treated with compound, except for administration of vehicles without compound in the vehicle control group.
Tactile sensitivity (Mechanical allodynia) was evaluated using von Frey monofilaments before and after treatment, and animals were included in the study only if the withdrawal threshold value was less than 4 g. One week after surgery, SNL-operated animals, sham-operated animals and vehicle control animals were tested for tactile sensitivity with von Frey monofilaments 3 trials in each animal. All Animals were placed in a stainless steel mash chamber and habituated for 30 min in the test cage. The tactile sensitivity for the ipsilateral hind paw was measured using the up-and-down method (Dixon, 1980) with seven von Frey monofilaments (0.4, 1, 2, 4, 6, 8, and 15 g) in 3 trials. The tactile sensitivity test was followed by Dixon's method (Dixon, 1980). The 50% paw withdrawal threshold for each paw was calculated using the following formula: [Xth] log=[vFr] log+ky where [vFr] is the force of the last von Frey used, k=0.2249 which is the average interval (in log units) between the von Frey monofilaments, and y is a value that depends upon the pattern of withdrawal responses (Dixon, 1980).
All animals were fasted 18 h before the administration of the compounds. Antiallodynic effect of compounds were evaluated at the three dose, orally administrated in a volume of 5 ul/g, bw in a vehicle of 30% (v/v) PEG 400 or 20% (v/v) Tween 80. The test was performed at the peak time of efficacy after compound administration.
The relative values compared to the sham group (% control) were calculated and shown in Table 3, which show an antiallodynic effect of the test compounds on SNL model in rats.

In experiment [3] the test system is SD rats. Briefly: Anti-epilepsy activity, MES test, rat. The protocol:
(§1) In the MES test (Ref., G. Villetti et al. Neuropharmacology 40 (2001) 866-878), an electrical stimulus (mice: 50 mA, 60 Hz, 0.2 sec, and rats: 150 mA, 60 Hz, 0.2 sec in the test animal) supplied by an 11A Shocker (IITC Life Science Company) was delivered through corneal electrodes. All mice or rats assigned to any electroshock at peak time were treated with each test compound sample which was dissolved in 30% PEG 400 or 20% tween 80 prepared by saline solvent applied orally before the test. […] Three doses of the test sample were administered orally to 9-18 animals (3-6 mice per dose) for evaluating the respective doses at which 50% of the animals were protected from seizure (ED50). The ED50 value (median effective dose) was calculated by Litchfield and Wicoxon log-probit method which is a dose-response relationship. Experimental animals, male ICR mice and male SD rats, were purchased from OrientBio, Samtako, or Nara Biotech, Korea, and housed in cages (4-5 mice or 3 rats per cage) for 4-5 days. The range of mice body weight was between 19 and 25 grams and range of rats body weight was between 100 and 130 grams.

Experiment [4] deals with Sprague-Dawley rats. Briefly: Antiallodynic activity on Complete Freund's Adjuvant (CFA)-induced inflammatory pain model. Particulars: intraperitoneally. The protocol:
Male, Sprague-Dawley rats (210-250 g, Nara Bio, Korea) were habituated for 1 week before CFA injection and allowed free access to food and water throughout the experimentation. Room temperature and humidity were maintained at 24±2 and 50±10%, respectively.
CFA-induced inflammatory pain was induced by the procedure of Nagakura et al. (2003) and Gregory P. et al. (2010) with minor modifications. CFA (sigma, USA) was injected in the right plantar with a 100 ul volume under gaseous anesthesia with isoflurane. Sham controls were injected with 100 ul of saline and preparation of the vehicles without compound in the vehicle control group. Tactile sensitivity (Mechanical allodynia) was evaluated using von Frey monofilaments before and after treatment, and the animals were included in the study only if the withdrawal threshold value was less than 4 g. One week after surgery, CFA-infused treatment animals (n=4-6), sham-operated animals (n=12), and vehicle control animals (n=17) were tested for tactile sensitivity with von Frey monofilaments 3 trials for each animal. All Animals were placed in a stainless steel mesh chamber and habituated for 30 min in the test box. The tactile sensitivity for ipsilateral hind paw was measured using the up-and-down method (Dixon, 1980) with seven von Frey monofilaments (0.4, 1, 2, 4, 6, 8, and 15 g) to 3 trials. Tactile sensitivity test was followed by Dixon's method (Dixon, 1980). The 50% paw withdrawal threshold for each paw was calculated using the following formula: [Xth] log=[vFr] log+ky where [vFr] is the force of the last von Frey used, k=0.2249 which is the average interval (in log units) between the von Frey monofilaments, and y is a value that depends upon the pattern of withdrawal responses (Dixon, 1980).
Antiallodynic effect of compound was evaluated at the dose of 10-60 mg/kg (n=4-6), intraperitoneally administrated in a volume of 5 ul/g bw in a vehicle of 30% (v/v) PEG or 20% (v/v) Tween 80. The test was performed peak time of efficacy (0.5 or 1 hr) after compound administration.
The relative values compared to the sham (% control) were calculated and shown in Table 4, which show an antiallodynic effect of Compound 1 on CFA-induced pain model in rats.

For experiment [5], the system named is ICR mice. Description: Chemical induced seizure model (PIC, picrotoxin). On the procedure:
Picrotoxin (PIC) were used to induce the behavioral seizures in the experiments. Male ICR mice (purchased from Orient Bio Inc. Korea) of body weight 19-26 g (mice) were used for these studies. The test materials were administered intraperitoneal (ip) route in a volume of 10 ul/g (mice) weight in mice, respectively. Pharmacological effects of the test materials were evaluated to compared test groups (n=6) with a control group (n=6). Control group was administrated vehicle, only. The peak time was determined by administration of test material's random dose for 0.5, 1, 2, 4 hour. The time that the most protect was defined as a peak time and ED50 was determined by other dose administration at the peak time. Chemical (PIC) was dissolved in 0.9% saline and administered subcutaneously (s.c.) at its CD97 (convulsive dose 97%), the dose of Chemical (PIC) that produced clonic seizures in 97% into a loose fold of skin in the midline of the neck in a volume of 10 ul/g (mice) body weight. The animals were then transferred to observation cages and observed continuously for 45 min (PIC). Clonic seizure was elicited in approximately 97% of control group. Protection was defined as a complete absence of clonic seizure over the 45-min observation period. The effective dose of compound necessary to protect against generalized convulsive seizures to 50% of controls (i.e. ED50) was determined by log probit analysis using SPSS software program (SPSS Inc.). (Reference; White H. S., J. H. Woodhead, K. S. Wilcox, J. P. Stables, H. J. Kupferberg, and H. H. Wolf. General Principles; Discovery and Preclinical De-velopment of Antiepileptic Drugs. In: R. H. Levy, R. H. Mattson, B. S. Meldrum, and E. Perucca, eds. Antiepileptic Drugs, 5th Ed. Lippincott Williams & Wilkins, Philadelphia 2002: pp. 36-48.) The obtained results are shown in following Table 10.

For experiment [6], the system named is ICR mice. Briefly: Anti-epilepsy activity, MES test, mouse. The protocol:
as §1

With `COCO[C@@H](c1ccccc1Cl)[C@H](C)OS(N)(=O)=O` [Example 69, (1S, 2S)-1-(2-chlorophenyl)-1-(methoxymethoxy)propan-2-yl sulfamate], the “Lithium pilocarpine model (pre) peak time” value in experiment [1] turned out to be 1 h. Further, the “Lithium pilocarpine model (pre) efficacy %” value in experiment [1] (50 mg/kg) is 33.3%. Also, the ED50 in experiment [2] (Rattus norvegicus, po, at peak time) was determined as 48.2 mg/kg; in experiment [4] (Rattus norvegicus, ip, at peak time), 29.5 mg/kg. Moreover, the “SNL Peak Time” value in experiment [2] came out at 1 h. Besides, the “MES test (po) Peak time” value in experiment [3] is on record as 1 h. The “MES test (po) efficacy %” value in experiment [3] (20 mg/kg) was found to be 16.6%. In experiment [4], the “CFA-induced pain model Peak Time” value is recorded as 0.5 h.

`C[C@@H](OS(N)(=O)=O)[C@H](OS(N)(=O)=O)c1ccccc1Cl` [Example 85]: the “PIC(ip) Peak Time” value in experiment [5] is listed as 4 h. Besides, the “PIC(ip) efficacy %” value in experiment [5] (30 mg/kg) is given as 30(33.3%). Further, the “MES test (po) Peak time” value in experiment [6] came out at 2 h. In experiment [6] (po, 100 mg/kg, read-out: MES test (po) efficacy %), the responders at 100 mg/kg came to 16.6%.
